The source of these data is patent publication US20140113824A1, “BICYCLIC (THIO)CARBONYLAMIDINES” (BAYER INTELLECTUAL PROPERTY GMBH, priority 2011, published 2014).

Like-named read-outs stand apart in the source and are kept apart here.

Holding throughout (type): in vivo
For assay [1], the system named is green peach aphid (Myzus persicae). As to the kind of experiment: Myzus test (MYZUPE spray treatment). As to conditions: for pest or weed control at 500 g/ha: Myzus persicae, foliar, 144 h, read-out: effect in % (aphids killed). As for the experimental part: 2. Myzus Test (MYZUPE Spray Treatment)
(§1) Solvents: 78.0 parts by weight of acetone • • 1.5 parts by weight of dimethylformamide Emulsifier: 0.5 part by weight of alkylaryl polyglycol ether
(§2) To produce a suitable preparation of active compound, 1 part by weight of active compound is mixed with the stated amounts of solvent and emulsifier, and the concentrate is diluted with emulsifier-containing water to the desired concentration.
Disks of Chinese cabbage leaves (Brassica pekinensis) infested by all stages of the green peach aphid (Myzus persicae) are sprayed with an active compound preparation of the desired concentration.
After 6 days, the effect in % is determined. 100% means that all of the aphids have been killed; 0% means that none of the aphids have been killed.

Another assay relates to Lucilia cuprina larvae. As to the kind of experiment: Lucilia cuprina test (LUCICU). As to conditions: 100 ppm; treated horse meat; after 48 hours. As for the experimental part:
5. Lucilia cuprina Test (LUCICU)
(§3) Solvent: dimethyl sulfoxide
(§4) To produce a suitable preparation of active compound, 10 mg of active compound are mixed with 0.5 ml of dimethyl sulfoxide, and the concentrate is diluted with water to the desired concentration.
Vessels containing horse meat treated with the active compound preparation of the desired concentration are populated with about 20 Lucilia cuprina larvae.
After 48 hours, the kill in % is determined 100% means that all larvae have been killed; 0% means that no larvae have been killed.

The test system of assay [2] is larvae of the mustard beetle (Phaedon cochleariae). The assay can be described thus: Phaedon test (PHAECO spray treatment). As to conditions: application rate 500 g/ha; spray on Chinese cabbage leaf disks; after 7 days. As for the experimental part:
1. Phaedon Test (PHAECO Spray Treatment)
as §1, §2
Disks of Chinese cabbage leaves (Brassica pekinensis) are sprayed with an active compound preparation of the desired concentration and, after drying, populated with larvae of the mustard beetle (Phaedon cochleariae).
After 7 days, the effect in % is determined. 100% means that all beetle larvae have been killed; 0% means that none of the beetle larvae have been killed.

In a further assay the test system is Cooperia curticei larvae. The assay can be described thus: Cooperia curticei test (COOPCU). As to conditions: 100 ppm in Ringer solution; after 5 days. As to the method:
7. Cooperia curticei Test (COOPCU)
as §3
To produce a suitable preparation of active compound, 10 mg of active compound are mixed with 0.5 ml of dimethyl sulfoxide, and the concentrate is diluted with Ringer solution to the desired concentration. Vessels containing the active compound preparation of the desired concentration are populated with about 40 Cooperia curticei larvae.
After 5 days, the kill in % is determined. 100% means that all larvae have been killed; 0% means that no larvae have been killed.

Another assay relates to adult Musca domestica. The assay can be described thus: Musca domestica test (MUSCDO). As to conditions: 100 ppm; treated sponge; after 2 days. As for the experimental part:
6. Musca domestica Test (MUSCDO)
as §3, §4
Vessels containing a sponge treated with the active compound formulation of the desired concentration are populated with adult Musca domestica.
After 2 days, the kill in % is determined. 100% means that all of the flies have been killed; 0% means that none of the flies have been killed.

The subject of assay [3] is adult fleas (Ctenocephalides felis). As to the kind of experiment: Ctenocephalides felis; oral (CTECFE). As to conditions: 100 ppm in citrated cattle blood, after 2 days. As for the experimental part:
4. Ctenocephalides felis; Oral (CTECFE)
Solvents: 1 part by weight of dimethyl sulfoxide
To produce a suitable preparation of active compound, 10 mg of active compound are mixed with 0.5 ml of dimethyl sulfoxide. A portion of the concentrate is diluted with citrated cattle blood, and the desired concentration is prepared.
About 20 unfed adult fleas (Ctenocephalides felis) are placed into a chamber which is closed at the top and bottom with gauze. A metal cylinder whose bottom end is closed with parafilm is placed onto the chamber. The cylinder contains the blood/active compound preparation, which can be taken up by the fleas through the parafilm membrane.
After 2 days, the kill in % is determined 100% means that all of the fleas have been killed; 0% means that none of the fleas have been killed.

In assay [4] the test system is greenhouse red spider mite (Tetranychus urticae). The assay can be described thus: Tetranychus test, OP-resistant (TETRUR spray treatment). As to conditions: application rate 100 g/ha; spray on infested bean leaf disks; after 6 days. As to the method:
3. Tetranychus Test, OP-Resistant (TETRUR Spray Treatment)
as §1, §2
Disks of bean leaves (Phaseolus vulgaris) which are infested by all stages of the greenhouse red spider mite (Tetranychus urticae) are sprayed with an active compound preparation of the desired concentration.
After 6 days, the effect in % is determined. 100% here means that all of the spider mites have been killed. 0% means that none of the spider mites have been killed.

[5] abbreviates: application rate 500 g/ha, spray on infested Chinese cabbage leaf disks, after 6 days.

In the case of `O=c1nc2n(Cc3ccc(C(F)(F)F)nc3)cccc-2o1` [Example I-1, 4-(6-Trifluoromethylpyridin-3-ylmethyl)oxazolo[4,5-b]pyridin-2(4H)-one], in assay [1] (setting [5]), the pest or weed control at 500 g/ha was found to be 100%.

As to `O=c1nc2n(Cc3cnc(Cl)c(Cl)c3)cccc-2o1` [Example I-2, 4-(5,6-Dichloropyridin-3-ylmethyl)oxazolo[4,5-b]pyridin-2(4H)-one], the “kill in % (larvae killed)” value in the assay on Lucilia cuprina larvae was found to be 100%. Besides, the pest or weed control at 500 g/ha in assay [1] (in Brassica rapa) amounted to 100%. In addition, the “effect in % (beetle larvae killed)” value in assay [2] is on record as 100%.

Regarding `O=c1nc2n(Cc3ccc(Cl)nc3)cccc-2o1` [Example I-3, 4-(6-Chloropyridin-3-ylmethyl)oxazolo[4,5-b]pyridin-2(4H)-one], the entries for the “kill in % (larvae killed)” value in the assay with Cooperia curticei larvae and in the assay on Lucilia cuprina larvae were 80% and 100%, respectively. Besides, in assay [1] (in Brassica rapa), the pest or weed control at 500 g/ha stood at 100%. The “effect in % (beetle larvae killed)” value in assay [2] was 100%.

On to `O=c1nc2n(Cc3cnc(Cl)c(F)c3)cccc-2o1` [Example I-4, 4-(6-Chloro-5-fluoropyridin-3-ylmethyl)oxazolo[4,5-b]pyridin-2(4H)-one], for which the “kill in % (larvae killed)” value in the assay on Lucilia cuprina larvae is given as 100%. Besides, the pest or weed control at 500 g/ha in assay [1] (in Brassica rapa) is 100%. Also, the “effect in % (beetle larvae killed)” value in assay [2] stood at 100%. The “kill in % (flies killed)” value in the assay on adult Musca domestica was 80%.

On to `Cc1cnc(Cn2cccc3oc(=O)nc2-3)cn1` [Example I-5, 4-(5-Methylpyrazin-2-ylmethyl)oxazolo[4,5-b]pyridin-2(4H)-one], for which the pest or weed control at 500 g/ha in assay [1] (setting [5]) was found to be 100%.

For `O=c1nc2n(Cc3cnc(Cl)s3)cccc-2o1` [Example I-6, 4-(2-Chloro-1,3-thiazol-5-ylmethyl)oxazolo[4,5-b]pyridin-2(4H)-one], in the assay with Lucilia cuprina larvae, the “kill in % (larvae killed)” value was 100%. The “kill in % (fleas killed)” value in assay [3] worked out at 80%. Besides, in assay [1] (in Brassica rapa), the pest or weed control at 500 g/ha turned out to be 100%. Also, the “effect in % (beetle larvae killed)” value in assay [2] amounted to 100%.

`O=c1nc2n(Cc3ccc(F)nc3)cccc-2o1` [Example I-9, 4-(6-Fluoropyridin-3-ylmethyl)oxazolo[4,5-b]pyridin-2(4H)-one]: the “kill in % (larvae killed)” value in the assay with Lucilia cuprina larvae came out at 100%. Also, in assay [1] (in Brassica rapa), the pest or weed control at 500 g/ha turned out to be 100%.

In the case of `O=c1nc2n(Cc3ccc(Br)nc3)cccc-2o1` [Example I-10, 4-(6-Bromopyridin-3-ylmethyl)oxazolo[4,5-b]pyridin-2(4H)-one], the pest or weed control at 500 g/ha in assay [1] (in Brassica rapa) worked out at 100%. Also, the “effect in % (beetle larvae killed)” value in assay [2] is listed as 100%.

For `O=c1nc2n(Cc3ccc(Cl)nc3)cc(Br)cc-2o1` [Example I-11, 6-Bromo-4-(6-chloropyridin-3-ylmethyl)oxazolo[4,5-b]pyridin-2(4H)-one], the pest or weed control at 500 g/ha in assay [1] (in Brassica rapa) is 100%.

With `O=C1N=C2C(CCCN2Cc2ccc(Cl)nc2)O1` (stereo not shown) [Example I-16, 4-(6-Chloropyridin-3-ylmethyl)-5,6,7,7a-tetrahydrooxazolo[4,5-b]-pyridin-2(4H)-one], in assay [4], the “effect in % (spider mites killed)” value was determined as 100%. Also, in assay [1] (in Brassica rapa), the pest or weed control at 500 g/ha turned out to be 100%. Also, in assay [2], the “effect in % (beetle larvae killed)” value is on record as 100%.

In the case of `CC(=O)N(Cc1ccc(Cl)nc1)c1ncccc1OCc1ccc(Cl)nc1` [Example I-16a, 2-[(N-acetyl, N′-(6-chloropyridin-3-ylmethyl)amino)]-3-(6-chloropyridin-3-ylmethoxy)pyridine], the “effect in % (spider mites killed)” value in assay [4] is on record as 90%.

As for `O=c1oc2cccnc2n1Cc1cnc(Cl)c(Cl)c1` [IV-2, 3-(5,6-dichloropyridin-3-ylmethyl)oxazolo[4,5-b]-2(3H)-one], in assay [1] (setting [5]), the “effect in % (aphids killed)” value came to 100%.

Take `O=c1oc2cccnc2n1Cc1ccc(C(F)(F)F)nc1` [IV-I, 3-(6-trifluoromethylpyridin-3-ylmethyl)oxazolo[4,5-b]-2(3H)-one]: the “effect in % (aphids killed)” value in assay [1] (setting [5]) was determined as 90%.
